Data on 4 compounds can be found in patent US11034650B2, “Compounds useful for treating a Mannheimia haemolytica or Histophilus somni infection” (Intervet Inc., priority 2016, dated 2021).

≈ marks a conversion by molar mass, not a printed value.

The subject of the first assay is Mannheimia haemolytica MH 6357 (M7/2, reference strain, cattle infection strain). The assay is described as follows: MIC, broth-microdilution (CLSI VET01-A4), strain MH 6357. It counts as cell-based. The settings on record: Mannheimia haemolytica strain MH 6357, broth-microdilution; unit assumed. In short, it runs like this:
(§1)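 The compound was titrated in twofold steps in microdilution trays. Absence of turbidity, checked without instruments, marked the MIC at the lowest such concentration.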
(In general: Broth dilution looks for growth in wells or tubes with falling amounts of substance.)
For the compound `CON=C(C)[C@H](NC(=O)c1ccc(C#Cc2ccc(CNCc3ccccc3)cc2)cc1)C(=O)NO` [Compound 382], the MIC MH 6357 worked out at 0.8 µg/mL (≈ 1.65 µM).
The same measure, in the same setting: the figure for `CON=C(C)[C@H](NC(=O)c1ccc(C#Cc2ccc(CNCc3ccco3)cc2)cc1)C(=O)NO` [Compound 391] is 0.4 µg/mL (≈ 0.843 µM).
On the same count and under the same terms, for `O=C(N[C@@H](CO)C(=O)NO)c1ccc(C#Cc2ccc(CNCc3ccco3)cc2)cc1` [Compound 159] the value was 1.6 µg/mL (≈ 3.69 µM); for `CSC(C)(C)[C@H](NC(=O)c1ccc(C#Cc2ccc(CN3CCOCC3)s2)cc1)C(=O)NO` [Compound 303], 0.2 µg/mL (≈ 0.41 µM).

For the next assay, the system named is Mannheimia haemolytica MH 6374 (ATCC 33396, reference strain). Put plainly: MIC, broth-microdilution (CLSI VET01-A4), strain MH 6374. It counts as cell-based. Particulars: Mannheimia haemolytica strain MH 6374, broth-microdilution; unit assumed. In short, it runs like this:
as §1
Consider `CON=C(C)[C@H](NC(=O)c1ccc(C#Cc2ccc(CNCc3ccccc3)cc2)cc1)C(=O)NO` [Compound 382], for which the MIC MH 6374 came to 1.6 µg/mL (≈ 3.3 µM).
Consider `CON=C(C)[C@H](NC(=O)c1ccc(C#Cc2ccc(CNCc3ccco3)cc2)cc1)C(=O)NO` [Compound 391], for which the MIC MH 6374 was determined as 0.4 µg/mL (≈ 0.843 µM).
Still for that read-out and setting: the figure for `O=C(N[C@@H](CO)C(=O)NO)c1ccc(C#Cc2ccc(CNCc3ccco3)cc2)cc1` [Compound 159] is 1.6 µg/mL (≈ 3.69 µM).
On the same count and under the same terms, the figure for `CSC(C)(C)[C@H](NC(=O)c1ccc(C#Cc2ccc(CN3CCOCC3)s2)cc1)C(=O)NO` [Compound 303] is 1.6 µg/mL (≈ 3.28 µM).

Another assay relates to Mannheimia haemolytica MH 10720 (154, BRD field isolate). The assay is described as follows: MIC, broth-microdilution (CLSI VET01-A4), strain MH 10720. Format: cell-based. The settings on record: Mannheimia haemolytica strain MH 10720, broth-microdilution; unit assumed. In short, it runs like this: as §1
`CON=C(C)[C@H](NC(=O)c1ccc(C#Cc2ccc(CNCc3ccccc3)cc2)cc1)C(=O)NO` [Compound 382]: the MIC MH 10720 stood at 0.8 µg/mL (≈ 1.65 µM).
The same measure, in the same setting: the figure for `CON=C(C)[C@H](NC(=O)c1ccc(C#Cc2ccc(CNCc3ccco3)cc2)cc1)C(=O)NO` [Compound 391] is 0.4 µg/mL (≈ 0.843 µM); for `O=C(N[C@@H](CO)C(=O)NO)c1ccc(C#Cc2ccc(CNCc3ccco3)cc2)cc1` [Compound 159] it is 0.4 µg/mL (≈ 0.923 µM).
Still for that read-out and setting: the figure for `CSC(C)(C)[C@H](NC(=O)c1ccc(C#Cc2ccc(CN3CCOCC3)s2)cc1)C(=O)NO` [Compound 303] is 0.4 µg/mL (≈ 0.82 µM).

The next assay deals with Mannheimia haemolytica MH 12587 (1071, BRD field isolate, macrolide-resistance: erm+, E+). Put plainly: MIC, broth-microdilution (CLSI VET01-A4), strain MH 12587. It counts as cell-based. The settings on record: Mannheimia haemolytica strain MH 12587, broth-microdilution; unit assumed. A digest of the protocol: as §1
As for `CON=C(C)[C@H](NC(=O)c1ccc(C#Cc2ccc(CNCc3ccccc3)cc2)cc1)C(=O)NO` [Compound 382], the MIC MH 12587 was 0.2 µg/mL (≈ 0.413 µM).
Consider `CON=C(C)[C@H](NC(=O)c1ccc(C#Cc2ccc(CNCc3ccco3)cc2)cc1)C(=O)NO` [Compound 391], for which the MIC MH 12587 is ≤ 0.1 µg/mL.
The same measure, in the same setting: the figure for `O=C(N[C@@H](CO)C(=O)NO)c1ccc(C#Cc2ccc(CNCc3ccco3)cc2)cc1` [Compound 159] is 3.1 µg/mL (≈ 7.15 µM); for `CSC(C)(C)[C@H](NC(=O)c1ccc(C#Cc2ccc(CN3CCOCC3)s2)cc1)C(=O)NO` [Compound 303] it is 1.6 µg/mL (≈ 3.28 µM).

In a further assay the test system is Mannheimia haemolytica MH 13065 (XB0446-6003.9, BRD field isolate). Put plainly: MIC, broth-microdilution (CLSI VET01-A4), strain MH 13065. The settings on record: Mannheimia haemolytica strain MH 13065, broth-microdilution; unit assumed. Format: cell-based. A digest of the protocol:
as §1
`CON=C(C)[C@H](NC(=O)c1ccc(C#Cc2ccc(CNCc3ccccc3)cc2)cc1)C(=O)NO` [Compound 382]: the MIC MH 13065 is 0.8 µg/mL (≈ 1.65 µM).
On the same count and under the same terms, for `CON=C(C)[C@H](NC(=O)c1ccc(C#Cc2ccc(CNCc3ccco3)cc2)cc1)C(=O)NO` [Compound 391] the value was 0.4 µg/mL (≈ 0.843 µM); for `O=C(N[C@@H](CO)C(=O)NO)c1ccc(C#Cc2ccc(CNCc3ccco3)cc2)cc1` [Compound 159], 3.1 µg/mL (≈ 7.15 µM).
Still for that read-out and setting: the figure for `CSC(C)(C)[C@H](NC(=O)c1ccc(C#Cc2ccc(CN3CCOCC3)s2)cc1)C(=O)NO` [Compound 303] is 1.6 µg/mL (≈ 3.28 µM).

The next assay deals with Mannheimia haemolytica MH 13093 (XB0472-6014.1, BRD field isolate). Put plainly: MIC, broth-microdilution (CLSI VET01-A4), strain MH 13093. It counts as cell-based. Particulars: Mannheimia haemolytica strain MH 13093, broth-microdilution; unit assumed. A digest of the protocol: as §1
In turn, `CON=C(C)[C@H](NC(=O)c1ccc(C#Cc2ccc(CNCc3ccccc3)cc2)cc1)C(=O)NO` [Compound 382] had an MIC MH 13093 of 0.8 µg/mL (≈ 1.65 µM).
In the case of `CON=C(C)[C@H](NC(=O)c1ccc(C#Cc2ccc(CNCc3ccco3)cc2)cc1)C(=O)NO` [Compound 391], the MIC MH 13093 stood at 0.4 µg/mL (≈ 0.843 µM).
Same read-out and setting: for `O=C(N[C@@H](CO)C(=O)NO)c1ccc(C#Cc2ccc(CNCc3ccco3)cc2)cc1` [Compound 159] the value was 3.1 µg/mL (≈ 7.15 µM); for `CSC(C)(C)[C@H](NC(=O)c1ccc(C#Cc2ccc(CN3CCOCC3)s2)cc1)C(=O)NO` [Compound 303], 1.6 µg/mL (≈ 3.28 µM).

The next assay concerns Pasteurella multocida PM 6267 (P 2225 (L386), reference strain, mouse infection strain). Put plainly: MIC, broth-microdilution (CLSI VET01-A4), strain PM 6267. Particulars: Pasteurella multocida strain PM 6267, broth-microdilution; unit assumed. It counts as cell-based. A digest of the protocol: as §1
`CON=C(C)[C@H](NC(=O)c1ccc(C#Cc2ccc(CNCc3ccccc3)cc2)cc1)C(=O)NO` [Compound 382] came in with an MIC PM 6267 of 0.8 µg/mL (≈ 1.65 µM).
Still for that read-out and setting: the figure for `CON=C(C)[C@H](NC(=O)c1ccc(C#Cc2ccc(CNCc3ccco3)cc2)cc1)C(=O)NO` [Compound 391] is 1.6 µg/mL (≈ 3.37 µM); for `O=C(N[C@@H](CO)C(=O)NO)c1ccc(C#Cc2ccc(CNCc3ccco3)cc2)cc1` [Compound 159] it is 0.2 µg/mL (≈ 0.461 µM); for `CSC(C)(C)[C@H](NC(=O)c1ccc(C#Cc2ccc(CN3CCOCC3)s2)cc1)C(=O)NO` [Compound 303] it is 1.6 µg/mL (≈ 3.28 µM).

A further assay deals with Pasteurella multocida PM 6391 (ATCC 43137, reference strain). The assay is described as follows: MIC, broth-microdilution (CLSI VET01-A4), strain PM 6391. It counts as cell-based. Particulars: Pasteurella multocida strain PM 6391, broth-microdilution; unit assumed. In short, it runs like this: as §1
`CON=C(C)[C@H](NC(=O)c1ccc(C#Cc2ccc(CNCc3ccccc3)cc2)cc1)C(=O)NO` [Compound 382]: the MIC PM 6391 was ≤ 0.1 µg/mL.
On the same count and under the same terms, for `CON=C(C)[C@H](NC(=O)c1ccc(C#Cc2ccc(CNCc3ccco3)cc2)cc1)C(=O)NO` [Compound 391] the value was ≤ 0.1 µg/mL; for `O=C(N[C@@H](CO)C(=O)NO)c1ccc(C#Cc2ccc(CNCc3ccco3)cc2)cc1` [Compound 159], 0.8 µg/mL (≈ 1.85 µM); for `CSC(C)(C)[C@H](NC(=O)c1ccc(C#Cc2ccc(CN3CCOCC3)s2)cc1)C(=O)NO` [Compound 303], 0.4 µg/mL (≈ 0.82 µM).

The test system of another assay is Pasteurella multocida PM 10775 (080130003051, BRD field isolate). The assay is described as follows: MIC, broth-microdilution (CLSI VET01-A4), strain PM 10775. It counts as cell-based. Particulars: Pasteurella multocida strain PM 10775, broth-microdilution; unit assumed. A digest of the protocol:
as §1
Take `CON=C(C)[C@H](NC(=O)c1ccc(C#Cc2ccc(CNCc3ccccc3)cc2)cc1)C(=O)NO` [Compound 382]: the MIC PM 10775 was determined as 0.4 µg/mL (≈ 0.825 µM).
The same measure, in the same setting: for `CON=C(C)[C@H](NC(=O)c1ccc(C#Cc2ccc(CNCc3ccco3)cc2)cc1)C(=O)NO` [Compound 391] the value was 0.4 µg/mL (≈ 0.843 µM).
For the compound `O=C(N[C@@H](CO)C(=O)NO)c1ccc(C#Cc2ccc(CNCc3ccco3)cc2)cc1` [Compound 159], the MIC PM 10775 is ≤ 0.1 µg/mL.
Still for that read-out and setting: for `CSC(C)(C)[C@H](NC(=O)c1ccc(C#Cc2ccc(CN3CCOCC3)s2)cc1)C(=O)NO` [Compound 303] the value was ≤ 0.1 µg/mL.

A further assay deals with Pasteurella multocida PM 12080 (IV102277-0093, BRD field isolate). The assay is described as follows: MIC, broth-microdilution (CLSI VET01-A4), strain PM 12080. Format: cell-based. The settings on record: Pasteurella multocida strain PM 12080, broth-microdilution; unit assumed. In short, it runs like this: as §1
In turn, `CON=C(C)[C@H](NC(=O)c1ccc(C#Cc2ccc(CNCc3ccccc3)cc2)cc1)C(=O)NO` [Compound 382] came in with an MIC PM 12080 of 0.4 µg/mL (≈ 0.825 µM).
As for `CON=C(C)[C@H](NC(=O)c1ccc(C#Cc2ccc(CNCc3ccco3)cc2)cc1)C(=O)NO` [Compound 391], the MIC PM 12080 was ≤ 0.1 µg/mL.
`O=C(N[C@@H](CO)C(=O)NO)c1ccc(C#Cc2ccc(CNCc3ccco3)cc2)cc1` [Compound 159] came in with an MIC PM 12080 of 0.4 µg/mL (≈ 0.923 µM).
On the same count and under the same terms, for `CSC(C)(C)[C@H](NC(=O)c1ccc(C#Cc2ccc(CN3CCOCC3)s2)cc1)C(=O)NO` [Compound 303] the value was 0.4 µg/mL (≈ 0.82 µM).
